Experimental data published in patent US8796279B2, “4′-demethylepipodophyllotoxin derivative, preparation method and use thereof” (Hubei University of Technology, priority 2010, dated 2014).
pIC50: −log10 of the molar value. Like-named read-outs stand apart in the source and are kept apart here.

Legend:
physchem = test: physchem
Experimental: I mg of each of 4-(2,3,5,6-tetramethylpyrazin-1-yl)-4′-demethylepipodophyllotoxin, 4′-demethylepipodophyllotoxin and podophyllotoxin was respectively dissolved into 3 centrifuge tubes of 10 mL each containing 2 mL n-octanol and 2 mL biological brine, the tubes were capped tight, shook thoroughly for 10 min, and subsequently let stand for 20 min. 0.2 mL of the organic- and water phase were respectively pipetted into clean test tubes. Absorbance (A) values of the organic- and water phase were measured using UV method, respectively, using A to calculate the weights of the drugs dissolved in the organic- and water layer, Walcohol and Wwater, respectively. The operations were repeated 3 times, averages were calculated, lipid-water partition coefficients were calculated using Eq. 1:
[formula] where Walcohol and Wwater denote the measured weights of drugs in n-octanol- and water phase, respectively; Valcohol and Vwater denote volumes of n-octanol- and water phase, respectively. 3. Results

[1] = tested on: human gastric cancer cell strain BGC-823; test: BGC-823 tumor cell growth inhibition, MTT method; assay type: cell-based; conditions: read-out: half growth inhibition concentration (IC50)
[2] = HK-2 normal cell growth inhibition (cell toxicity), MTT method; assay type: cell-based, human; conditions: human, HK-2 cells (proximal tubule); HK-2 normal cells, MTT, 48 h; read-out: half growth inhibition concentration (IC50), cell toxicity
[3] = tested on: human pulmonary cancer cell strain A549; test: A549 tumor cell growth inhibition, MTT method; conditions: read-out: half growth inhibition concentration (IC50)
[4] = tested on: human proximal tubule cell strain HK-2; test: HK-2 normal cell growth inhibition (cell toxicity), MTT method; assay type: cell-based; conditions: HK-2 normal cells, from IC50 values
HepG2 tumor cell strain = test: HepG2 tumor cell growth inhibition, MTT method; conditions: for pIC50: Homo sapiens, HepG2, 48 h, read-out: half growth inhibition concentration (IC50)
[5] = Homo sapiens, BGC-823 cells, MTT, 48 h

SMILES: Cc1nc(C)c(C)nc1C [tetramethylpyrazine]
- lipid-water partition coefficient (logP) (physchem): >5
- logP (physchem): > 5

SMILES: COc1cc([C@@H]2c3cc4c(cc3[C@H](O)[C@H]3COC(=O)[C@H]23)OCO4)cc(OC)c1OC [podophyllotoxin]
- logP (physchem): 0.34
- pIC50 ([1]; Homo sapiens, BGC-823, 48 h): 3.28
- IC50 at 48 h [2]: 3.5 nM

SMILES: COc1cc([C@@H]2c3cc4c(cc3[C@@H](O)[C@H]3COC(=O)[C@H]23)OCO4)cc(OC)c1O [4′-demethylepipodophyllotoxin]
- pIC50 ([1]; BGC-823 cells, MTT, 48 h): 3.40
- pIC50 ([3]; A549 cells, MTT, 48 h): 6.35

SMILES: COc1cc([C@@H]2c3cc4c(cc3[C@@H]([n+]3c(C)c(C)nc(C)c3C)[C@H]3COC(=O)[C@H]23)OCO4)cc(OC)c1O [4-(2,3,5,6-tetramethylpyrazin-1-yl)-4′-demethylepipodophyllotoxin]
- logP (physchem): 0.66
- lipid water partition coefficient increased than 4′-demethylepipodophyllotoxin (physchem; from logP values): 16%
- lipid water partition coefficient increased than podophyllotoxin (physchem; from logP values): 94%
- pIC50 [1, 5]: 7.22
- IC50 at 48 h [2]: 240 nM
- cell toxicity decreased in comparison with podophyllotoxin [4]: ~66 times
- inhibition activity raised in comparison with etoposide (HepG2 tumor cell strain; HepG2 cells, from IC50 values): 2.7 times
- pIC50 (HepG2 tumor cell strain): 6.54
- pIC50 ([3]; Homo sapiens, A549, 48 h): 6.64

SMILES: COc1cc([C@@H]2c3cc4c(cc3[C@@H](O[C@@H]3O[C@@H]5CO[C@@H](C)O[C@H]5[C@H](O)[C@H]3O)[C@H]3COC(=O)[C@H]23)OCO4)cc(OC)c1O [etoposide]
- pIC50 [1, 5]: 4.85
- pIC50 (HepG2 tumor cell strain): 5.97
- pIC50 ([3]; Homo sapiens, A549, 48 h): 3.78
